Data from patent US20110015080A1, “Solution-based methods for RNA expression profiling” (MASSACHUSETTS INSTITUTE OF TECHNOLOGY, priority 2005, published 2011).
Entries after “also recorded” stand apart in the source; their conditions may differ.

Columns and labels:
[1] = system: HL-60 cells; experiment: Bead-based miRNA expression profiling of HL-60 cells treated with all-trans retinoic acid; format: cell-based, human; conditions: 1 μM all-trans retinoic acid, 1, 3 and 5 days
Procedure: Details of sample information are available in Table 9. Total RNAs were prepared from tissues or cell lines using TRIzol (INVITROGEN™, Carlsbad, Calif.), as described (Ramaswamy et al., 2001), and in compliance with IRB protocols. Leukemia bone marrow mononuclear cells were collected from patients treated at ST. JUDE […]′S […] HOSPITAL™ and at DANA-FARBER CANCER […]™ and their immunophenotype and genotype determined as previously described (Ferrando et al., 2002; Yeoh et al., 2002). Normal mouse lung and mouse lung cancer samples were collected from KRasLA1 mice, and genotyped as described (Johnson et al., 2001). Lungs from four- to five-month old mice were inflated with phosphate-buffered saline prior to removal. Individual lung tumors and normal lungs were dissected and immediately frozen on dry ice before RNA preparation. HL-60 cells were plated at 1.5×10^5 cell/ml and induced to differentiate by 1 μM all-trans retinoic acid (SIGMA™, St. Louis, Mo.; in ethanol). […]
miRNA capture probes were 5′-amino-modified oligonucleotides with a 6-carbon linker (IDT). […] Median fluorescence intensity values were measured.
Profiling data were first scaled according to the post-labeling-controls and then the pre-labeling-controls, in order to normalize readings from different probe/bead sets for the same sample, and to normalize for the labeling efficiency, as detailed in Materials and Methods of Example 3. […]

[2] = system: HL-60 acute myeloblastic leukemia cells; conditions: treatment during a course of 5 days (Stegmaier et al., 2004); cited from earlier work

CC1=C(/C=C/C(C)=C/C=C/C(C)=C/C(=O)O)C(C)(C)CCC1 [tretinoin, all-trans-retinoic acid]
miRNA expression in HL-60 cells [1]: induction of many miRNAs coincident with differentiation | miRNA expression in HL-60 cells ([1]; listed as ATRA): increased expression of many miRNAs | differentiation of HL-60 cells [2]: potent inducer of neutrophilic differentiation; also recorded: differentiate with increasing neutrophil characteristics
